# Experimental data from patent publication US20120251628A1, “COMPOSITIONS AND METHODS FOR TREATMENT OF CANCER” (priority 2011, published 2012).
# Columns and labels:
# [1] = tested on: CT26 (mouse colon cancer); assay: DCE-MRI of tumor vascularity (Kep) in CT26 tumor mice; assay type: in vivo
# Procedure: To determine whether the occurrence of central necrosis of tumors 24 hours after treatment was caused by the reduction of vascularity, DCE-MRI was used before the medication was administered and 24 hours after administration.
# Inoculate CT26 (mouse colon cancer) 2×10^6 cell subcutaneously into mice on the upper parts of their thighs.
# After checking the tumor size between 6 to 10 mm, acquire images through MRI.
# Image Acquisition: Use a magnetic resonance imaging device (i.e., 3 Tesla Intera human clinical scanner; Philips medical systems) and a mouse coil with an inner diameter of 4 cm to get images. Acquire images before the drug is administered and those 24 hours after that for two days.
# MR Pulse Sequence as follows: Dynamic Contrast enhanced MRI scan: FOV (mm)=50×35; RFOV (%)=71; Matrix scan=112; reconstruction=224; TR/TE (ms)=12/4.0; slice thickness=1 mm; slice number=11; dynamic scans=60.
# i. Conduct an experiment to the subjects under anesthesia by using an inhalation anesthetic mixing 1.5% isoflurane in 100% oxygen at a flow rate of 1 L/min.
# ii. Cannulate an intravenous injection line through the tail vein to inject a contrast agent.
# iii. Use Gd-DTPA (Magnevist, Schering, Germany, 281 mg/kg) as a contrast agent and get pre-contrast images before injecting the contrast agent and post-contrast images after injecting it.
# iv. After getting the images, inject KML001 (10 mg/kg) and Arsenic trioxide (7.5 mg/kg) intraperitoneally.
# v. Get images through a dynamic scan again 24 hours after injection.
# Accordingly, the groups of animals with which the DCE-MRI data was obtained are as follows: Group of animals treated with ATO: n=4, Group of animals treated with Saline: n=4 and Group of animals treated with KML001: n=6.
# As the low data in MRI was mapped from each result of the DCE-MRI to the positive control group of animals treated with ATO, the negative control group of animals treated with saline and the experimental group of animals treated with KML001, Kep values important for tumor vascularity were calculated. Kep (rate constant) is the back diffusion rate constant from interstitial space to vascular space, reflecting leakage of tumor vessels, i.e., a measurement of vascularity.
# α-tubulin mRNA = assay: RT-PCR of tubulin mRNA from HUVECs; assay type: cell-based, Human; details: 5 uM, 10 uM and 20 uM, 24 hours and 48 hours after treatment
# Procedure: (§1) To determine whether the level of tubulin gene expression is responsible for the change in amount of tubulin protein observed in Example 5, RT-PCR was performed. HUVECs (obtained from ATCC) were cultivated in F25 culture flasks containing F-12K (Sigma) medium supplemented with 10% FBS and endothelial cell growth supplement (ECGS, E2759, Sigma). After cultivation for 24 hours, the cells were treated with sodium meta arsenite at concentrations of 5 uM, 10 uM and 20 uM. […] Total RNA was extracted using Trizol (Invitrogen, USA) and alcohol precipitation. 1 ug of total RNA was used for reverse transcriptase and dT was used for cDNA synthesis. The primer for synthesized cDNA and α-tubulin (sense: 5′-ATTGTGCCTTCATGGTAGAC-3′ (SEQ ID NO. 1), antisense: 5′-TTCTGTCAGGTCAACATTCA-3′) (SEQ ID NO. 2), the primer for β-tubulin (sense: 5′-AACGACCTCGTCTCTGAGTA-3′ (SEQ ID NO. 3), antisense: 5′-AATTCTGAGGGAGAGGAAAG-3′) (SEQ ID NO. 4) and GAPDH primer set (sense: 5′-ACCACTTTGTCAAGCTCATT-3′ (SEQ ID NO. 5), antisense: 5′-AGTGAGGGTCTCTCTCTTCC-3′) (SEQ ID No. 6) were used for denaturation at 95° C. for four minutes. After the reactions at 23 cycles at 95° C. for 30 seconds, at 52° C. for 30 seconds and at 72° C. for 40 seconds, PCR was performed at 72° C. for four minutes. The PCR product was confirmed by 1.5% agarose gel electrophoresis.
# β-tubulin mRNA = assay: RT-PCR of tubulin mRNA from HUVECs; assay type: cell-based, Human; details: 5 uM, 10 uM and 20 uM, 24 hours and 48 hours after treatment
# Procedure: as §1
# [2] = tested on: CT26 colon carcinoma cells; assay: Observation of necrosis in tumor tissues after treatment (tumor images); assay type: in vivo; details: 10 mg/kg intraperitoneal; discolored at 24 hours after injection; BALB/c mice
# Procedure: Seven-week-old, female, specific-pathogen-free (BALB/c) white mice (weight: approximately 20 g) purchased from ORIENTBIO Inc. (Seoul Korea) were subcutaneously injected with 2×10^6 of CT26 colon carcinoma cells per mouse. When the tumor size became 3 mm in diameter, the control group was injected with a phosphate buffered saline (PBS) solution with 5% dextrose while the experimental group was intraperitoneally injected with 100 μL of sodium meta arsenite at a concentration of 10 mg/kg with 5% dextrose. After injection, the measurements of the size of tumors (volume=πab^2/6, where a and b are diameters of tumors) by using the caliper once every two days and the images of the tumors were recorded for 15 days. While the discoloration of the tissues of the mice injected without sodium meta arsenite was not observed for a certain period of time, the central part of tumors in the tissues of the white mice injected with sodium meta arsenite became discolored at 24 hours after the injection of sodium meta arsenite. As time went by, it was observed that the tumors became discolored regardless of the injection of sodium meta arsenite.
smiles,measurement,setting,value
O=[As][O-].[Na+] [sodium meta arsenite],"Kep values (back diffusion rate constant, tumor vascularity)","[1]; 24 hours after intraperitoneal injection vs pre-treatment, KML001 10 mg/kg, ATO 7.5 mg/kg",significantly reduced
same,contrast enhancement of the tumors in the MRI,[1]; 24 hours after treatment,decreased
same,α-tubulin mRNA levels,α-tubulin mRNA,no change
same,β-tubulin mRNA level,β-tubulin mRNA,no change
same,discoloration of the central part of tumors due to necrosis,[2],the tissues in the central part became discolored due to necrosis
